19 compounds from patent US20140329854A1, “NOVEL HETEROCYCLIC COMPOUNDS USEFUL IN SIRTUIN BINDING AND MODULATION” (SMB Innovation, priority 2011, published 2014) can be followed below.

Each structure is given as a SMILES string. Read-outs that look alike come from different tables or passages of the source.

The target in data set [1] is T1, SIRT1 (Homo sapiens, UniProt Q96EB6).
T1 construct: purchased Cisbio Bioassays
T1 sequence (Q96EB6 1-747): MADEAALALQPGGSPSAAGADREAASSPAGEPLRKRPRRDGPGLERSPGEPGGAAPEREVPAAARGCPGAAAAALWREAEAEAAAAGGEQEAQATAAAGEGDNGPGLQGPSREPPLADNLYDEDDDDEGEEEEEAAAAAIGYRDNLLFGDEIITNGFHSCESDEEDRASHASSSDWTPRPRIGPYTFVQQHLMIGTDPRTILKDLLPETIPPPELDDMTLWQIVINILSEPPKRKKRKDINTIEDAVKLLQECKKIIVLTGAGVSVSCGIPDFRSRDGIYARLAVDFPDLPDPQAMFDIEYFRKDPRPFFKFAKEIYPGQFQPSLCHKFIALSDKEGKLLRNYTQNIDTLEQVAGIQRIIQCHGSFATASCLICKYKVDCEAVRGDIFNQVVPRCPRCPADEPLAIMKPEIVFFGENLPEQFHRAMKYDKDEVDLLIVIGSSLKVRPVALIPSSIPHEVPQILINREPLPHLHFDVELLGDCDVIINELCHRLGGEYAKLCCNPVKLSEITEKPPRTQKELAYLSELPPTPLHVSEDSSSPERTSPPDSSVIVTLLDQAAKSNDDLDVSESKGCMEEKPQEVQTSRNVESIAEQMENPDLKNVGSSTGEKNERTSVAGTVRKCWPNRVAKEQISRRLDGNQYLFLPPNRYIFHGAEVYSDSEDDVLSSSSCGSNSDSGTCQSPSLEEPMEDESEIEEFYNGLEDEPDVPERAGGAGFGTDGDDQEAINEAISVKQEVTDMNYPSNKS
Kind of data set: CISBIO HTRF SIRT1 assay of SIRT1 peptide deacetylation, modified by excluding NAD+. Format: biochemical. Particulars: for Modulation of SIRT1 deacetylating activity (in words): dose response, FIGS. 1-5. The procedure: Generally, the CISBIO HTRF® fluorescence enzyme titration assay (Cisbio Bioassays, Cisbio, 135 South Road, Bedford, Mass. 01730, USA) has provided information on inhibition and/or activation of SIRT1 deacetylation of a substrate peptide d2 containing a single acetylated lysine residue and a fluorescence probe/quencher. IC50 and AC50 values have been obtained. The assay was performed in microtiter wells and involved an enzymatic step, wherein 2 μL of the substrate peptide (6 nM) is incubated with 2 μL of SIRT1 enzyme (2.5 ng) and 2 μL of compound solution in DMSO and water. Reaction with anti-acetyl cryptate produces a FRET signal giving maximum signal when no SIRT1 reaction can be detected. The detection step involves quantification of the deacetylation process using an anti-acetyl MAb labeled with Eu^3+ cryptate. The assay was modified by excluding the NAD+ cofactor and using nicotinamide as inhibition control and the compound SRT1720 as activation control. SRT 1720 is described as a SIRT1 activating compound in Pillarisetti, S. (2008).
Protocol for inhibition/activation assay:
After adding all enzymatic step ingredients the mixture is incubated at room temperature at 30 to 60 min. Then the detection reactant is added and incubated at room temperature for 5 hours and on to produce a signal. The fluorescence readout is given as percentage of signal produced with no enzyme reaction.
The cryptate is excited at 337 nm and the fluorescence is measured at 590 nm (cryptate emission wavelength) and 665 nm (d2 emission wavelength). A ratio is calculated (665/590 nm) for each well.
The figures show percentage fluorescence as a function of Log C (log of compound concentration in μM).

The subject of data set [2] is MDCK-MDR1 cells. The text has this:
MDR1 is the nomenclature for the major efflux transporter P-glycoprotein (P-gp), which is expressed at important anatomical barriers such as blood-brain, small intestine, and tumor cells. The MDCK-MDR model is a polarized cell model over expressing P-gp (i.e. P-gp is expressed on the Apical, or gut lumen, side of the cell) that is capable of actively effluxing small molecule substrates in the B to A direction. […] The compounds were run bidirectionally (Compound added to apical side and flux measured of compound appearing on the basolateral, or blood, side; compound added on basolateral side and flux of compound to apical side measured).

Data set [3] concerns human and rat hepatocytes. Kind of data set: Stability in cryopreserved hepatocytes (FIG. 7), verbal summary. Format: in vitro ADME. Particulars: 90 minutes. The procedure: (§1) Stability of the six compounds in the presence of a drug metabolizing system such as human and rat hepatocytes was measured. Data were reported from the CRO in the format of hepatic intrinsic clearance (CLint) in mL/min/kg. These CLint data were converted using the well-stirred equation

Data set [4] can be described thus: Measured partition coefficients (MlogD7.4, logP11). Format: physicochemical. Particulars: measured partition coefficient at pH 7.4. The procedure:
Physical properties tPSA and ClogP (calculated lipophilicity octanol/water) were calculated using ChemDraw. Additionally, M log D7.4 (measured partition coefficient at pH 7.4) and log P11 (measured partition coefficient at pH 11) were measured, and all data are shown in Table 7.

The nature of data set [5]: Solubility in DMSO stock solution. Particulars: solubility in DMSO before further dilution with water to 1% DMSO.
Data set [6] has as its system human hepatocytes. Put plainly: Metabolic stability in human hepatocytes. Format: in vitro ADME. The following applies: for % Qh (human): CLh as % of hepatic blood flow; for % Qh (human) / hu CLh: human Qh = 21 mL/min/kg; for hu CLh: hepatic clearance from CLint by well-stirred equation; for hu CLint: human hepatocytes, hepatic intrinsic clearance. The procedure:
as §1
(§2) to a whole body clearance (CLh, hepatic clearance), which is more directly physiologically interpreted (Qh, hepatic blood flow rate, mL/min/kg).

Data set [7] has as its system rat hepatocytes. Kind of data set: Metabolic stability in rat hepatocytes. The following applies: for % Qh (rat): CLh as % of hepatic blood flow; for % Qh (rat) / rat CLh: rat Qh = 55 mL/min/kg; for rat CLh: hepatic clearance from CLint by well-stirred equation; for rat CLint: rat hepatocytes, hepatic intrinsic clearance. Format: in vitro ADME. As for the experimental part: as §1, §2

The test system of data set [8] is CYP1A2, 2C9, 2C19, 2D6, and 3A4. The following applies: microsomes.
Data set [9] deals with CYP1A2, CYP2C9, CYP2C19, CYP2D6, CYP3A4. Put plainly: CYP inhibition in human liver microsomes.
The mark [10] stands for this setting: average AC50 values, n = 6, read-out: AC50.
[11] abbreviates: SIRT1 activation, no NAD+ cofactor, single experiment of FIGS. 1-4, read-out: AC50 in μM, n = 1.
Where [12] appears, read: SIRT1 activation, no NAD+ cofactor, average n = 3, read-out: AC50 in μM, average, n = 3.

Consider `NC(=O)c1ccc(C(=O)Nc2cc(Cl)ccc2O)nc1` [Compound 23, 2-N(2-hydroxy-5-chloro-phenyl)pyridine-2,5-dicarboxamide], for which the AC50 in [1] (setting [10]) was above 200 µM.

Regarding `NC(=O)c1ccc(C(=O)Nc2ccc(O)cc2O)cn1` [Compound 9, 5-N(2,4-dihydroxyphenyl)pyridine-2,5-dicarboxamide], in [2], the “Cell permeability (in words)” value was “moderate cell permeability” and the “P-gp mediated efflux (in words)” value is “no P-gp mediated efflux”. Further, in data set [3], the “Clearance in hepatocytes (in words)” value is listed as “relatively low clearance” and the “Stability in hepatocytes (in words)” value was “good stability”. Also, the MlogD7.4 in [4] is on record as 0.3. The AC50 in data set [1] (setting [11]) stood at 112 µM. For the same compound, the “Modulation of SIRT1 deacetylating activity (in words)” value (“Modulation” below) in data set [1] is “clear activation”. Also, the “Concentration of compound in DMSO stock solution” value (“Concentration of compound” below) in data set [5] came to 200000 µM. Moreover, in data set [6], the “% Qh (human)” value is listed as 36.4%, the “hu CLh” value came out at 7.6 mL/min/kg and the “hu CLint” value is 12 mL/min/kg. For the same compound, in data set [7], the “% Qh (rat)” value was determined as 21.4%, the “rat CLh” value is reported as 11.8 mL/min/kg and the “rat CLint” value turned out to be 15 mL/min/kg. Moreover, the half-inhibitory concentration (IC50) in data set [8] is above 5 µM.

With `NC(=O)c1ccc(C(=O)Nc2cccc3c(O)cccc23)cn1` [Compound 10, 5-N(5-hydroxy-1-naphthyl)pyridine-2,5-dicarboxamide], in [5], the “Concentration of compound” value was found to be 20000 µM.

On to `NC(=O)c1ccc(C(=O)Nc2cccc3cc(O)ccc23)cn1` [Compound 12, 5-N(6-hydroxy-1-naphthyl)pyridine-2,5-dicarboxamide], for which the “Concentration of compound” value in [5] turned out to be 20000 µM.

Turning to `NC(=O)c1ccc(C(=O)Nc2cccc3c(O)cccc23)nc1` [Compound 5, 2-N(5-hydroxy-1-naphthyl)pyridine-2,5-dicarboxamide], the “Concentration of compound” value in data set [5] came to 20000 µM.

`NC(=O)c1ccc(C(=O)Nc2ccc3ccccc3c2O)nc1` [Compound 19, 2-N(1-hydroxy-2-naphthyl)pyridine-2,5-dicarboxamide]: the AC50 in data set [1] (setting [10]) came out at 31.6 µM. For the same compound, in data set [9], the IC50 was above 5 µM.

Turning to `NC(=O)c1ccc(C(=O)Nc2cc3ccccc3cc2O)nc1` [Compound 18, 2-N(3-hydroxy-2-naphthyl)pyridine-2,5-dicarboxamide], in data set [1] (setting [10]), the concentration at half-maximal activity (AC50) was found to be 116 µM.

For the compound `NC(=O)c1cccc(C(=O)Nc2ccc(O)cc2O)n1` [Compound 13, 2-N(2,4-dihydroxyphenyl)pyridine-2,6-dicarboxamide], the concentration at half-maximal activity (AC50) came to 647 µM in [1] (setting [12]) and 105 µM in [1] (setting [11]). Also, the “Modulation” value in [1] is listed as “clear activation”. Further, the “Concentration of compound” value in data set [5] came to 20000 µM.

On to `COc1cccc(NC(=O)c2ccc(C(N)=O)cn2)c1O` [Compound 24, 2-N(2-hydroxy-3-methoxy-phenyl)pyridine-2,5-dicarboxamide], for which the IC50 in data set [8] was above 5 µM.

On to `NC(=O)c1ccc2cc(C(=O)Nc3ccccc3O)ccc2n1` [Compound 15, 6-N(2-hydroxyphenyl)quinolin-2,6-dicarboxamide], for which, in data set [5], the “Concentration of compound” value was 10000 µM.

For the compound `NC(=O)c1ccc(C(=O)Nc2ccc(O)c3ccccc23)nc1` [Compound 4, 2-N(4-hydroxy-1-naphthyl)pyridine-2,5-dicarboxamide], in data set [5], the “Concentration of compound” value came out at 20000 µM.

For the compound `NC(=O)c1ccc(C(=O)Nc2cccc3cc(O)ccc23)nc1` [Compound 6, 2-N(6-hydroxy-1-naphthyl)pyridine-2,5-dicarboxamide], in data set [5], the “Concentration of compound” value is 100000 µM.

Consider `COc1cc2ccccc2c(NC(=O)c2ccc(C(N)=O)cn2)c1O` [Compound 28, 2-N(2-hydroxy-3-methoxy-1-naphthyl)pyridine-2,5-dicarboxamide], for which the AC50 in data set [1] (setting [10]) amounted to 175 µM.

On to `NC(=O)c1ccc(C(=O)Nc2c(O)ccc3cc(Cl)ccc23)nc1` [Compound 29, 2-N(2-hydroxy-6-chloro-1-naphthyl)pyridine-2,5-dicarboxamide], for which the AC50 in data set [1] (setting [10]) amounted to 113 µM. For the same compound, the IC50 in data set [9] is above 5 µM.

With `CCOc1ccc2ccc(=O)oc2c1` [Compound 7EC, reference compound], in data set [6], the “% Qh (human)” value amounted to 82.5%, the “hu CLh” value was determined as 17.3 mL/min/kg and the “hu CLint” value is 99 mL/min/kg. In addition, in [7], the “% Qh (rat)” value was found to be 66.0%, the “rat CLh” value worked out at 36.3 mL/min/kg and the “rat CLint” value was 107 mL/min/kg.

For the compound `NC(=O)c1ccc(C(=O)Nc2ccccc2O)nc1` [Compound 2, 2-N(2-hydroxyphenyl)pyridine-2,5-dicarboxamide], the AC50 in data set [1] (setting [12]) was determined as 348 µM; in [1] (setting [11]) it was 316 µM. Also, the “Modulation” value in data set [1] is “clear activation”. Moreover, in [5], the “Concentration of compound” value was 200000 µM.

With `NC(=O)c1cc(C(=O)Nc2ccc(O)cc2)c[nH]1` [Compound 16, 4-N(4-hydroxyphenyl)pyrrol-2,4-dicarboxamide], the “Concentration of compound” value in data set [5] amounted to 200000 µM.

`NC(=O)c1cc(C(=O)Nc2ccccc2O)c[nH]1` [Compound 17, 4-N(2-hydroxyphenyl)pyrrol-2,4-dicarboxamide] had an IC50 in data set [1] (SIRT1 inhibition, no NAD+ cofactor, n = 1, FIG. 5) of 0.5 µM. Further, in [1], the “Modulation” value is on record as “clear inhibition”. In addition, the “Concentration of compound” value in data set [5] worked out at 200000 µM.

Regarding `NC(=O)c1ccc2cc(C(=O)Nc3ccc(O)cc3)ccc2n1` [Compound 14, 6-N(4-hydroxyphenyl)quinolin-2,6-dicarboxamide], the “Concentration of compound” value in data set [5] came out at 200000 µM.
